In the supplement of paper PMC10307832:

Columns and labels:
Assay in all cases: relative viability (nuclei count vs DMSO), 5 days (fraction); higher = more cells survive
NCI-H2405 = system: NCI-H2405
Procedure, shortened: (§1)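 Lung cancer cell lines in 1536-well plates got either a single drug or a fixed anchor-drug dose together with five library-drug doses (not always all listed) in √10 steps, by pin tool, on the day after seeding. Nuclei were counted after 5 days, and relative viability is the treated-to-vehicle ratio of nuclei counts. Values are medians of duplicate plates.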

NCI-H2126 = system: NCI-H2126
Procedure, shortened: as §1

SK-LU-1 = system: SK-LU-1
Procedure, shortened: as §1

NCI-H1944 = system: NCI-H1944
Procedure, shortened: as §1

HCC-15 = system: HCC-15
Procedure, shortened: as §1

HARA = system: HARA
Procedure, shortened: as §1

NCI-H2228 = system: NCI-H2228
Procedure, shortened: as §1

LC-2-ad = system: LC-2-ad
Procedure, shortened: as §1

ABC-1 = system: ABC-1
Procedure, shortened: as §1

NCI-H23 = system: NCI-H23
Procedure, shortened: as §1

COR-L23 = system: COR-L23
Procedure, shortened: as §1

ChaGo-K-1 = system: ChaGo-K-1
Procedure, shortened: as §1

NCI-H358 = system: NCI-H358
Procedure, shortened: as §1

NCI-H1793 = system: NCI-H1793
Procedure, shortened: as §1

HCC-366 = system: HCC-366
Procedure, shortened: as §1

NCI-H1395 = system: NCI-H1395
Procedure, shortened: as §1

HCC-78 = system: HCC-78
Procedure, shortened: as §1

EMC-BAC-2 = system: EMC-BAC-2
Procedure, shortened: as §1

NCI-H1993 = system: NCI-H1993
Procedure, shortened: as §1

NCI-H838 = system: NCI-H838
Procedure, shortened: as §1

HOP-62 = system: HOP-62
Procedure, shortened: as §1

NCI-H2023 = system: NCI-H2023
Procedure, shortened: as §1

O=c1cc(-c2cccc3c2Sc2ccccc2S3)oc(N2CCOCC2)c1 + Cc1nc(Nc2ncc(C(=O)Nc3c(C)cccc3Cl)s2)cc(N2CCN(CCO)CC2)n1 [Dasatinib] (partner 0.075 µM)
relative viability (NCI-H2405; first compound 0.08 µM): 0.183
relative viability (NCI-H2405; first compound 0.253 µM): 0.194
relative viability (NCI-H2405; first compound 0.8 µM): 0.192
relative viability (NCI-H2405; first compound 2.53 µM): 0.179
relative viability (NCI-H2405; first compound 8 µM): 0.209
relative viability (NCI-H2126; first compound 0.08 µM): 0.59
relative viability (NCI-H2126; first compound 0.253 µM): 0.456
relative viability (NCI-H2126; first compound 0.8 µM): 0.43
relative viability (NCI-H2126; first compound 2.53 µM): 0.534
relative viability (NCI-H2126; first compound 8 µM): 0.495
relative viability (SK-LU-1; first compound 0.08 µM): 0.156
relative viability (SK-LU-1; first compound 0.253 µM): 0.17
relative viability (SK-LU-1; first compound 0.8 µM): 0.205
relative viability (SK-LU-1; first compound 2.53 µM): 0.18
relative viability (SK-LU-1; first compound 8 µM): 0.182
relative viability (NCI-H1944; first compound 0.08 µM): 0.21
relative viability (NCI-H1944; first compound 0.253 µM): 0.223
relative viability (NCI-H1944; first compound 0.8 µM): 0.207
relative viability (NCI-H1944; first compound 2.53 µM): 0.176
relative viability (NCI-H1944; first compound 8 µM): 0.24
relative viability (HCC-15; first compound 0.08 µM): 0.606
relative viability (HCC-15; first compound 0.253 µM): 0.733
relative viability (HCC-15; first compound 0.8 µM): 0.546
relative viability (HCC-15; first compound 2.53 µM): 0.563
relative viability (HCC-15; first compound 8 µM): 0.659
relative viability (HARA; first compound 0.08 µM): 0.294
relative viability (HARA; first compound 0.253 µM): 0.31
relative viability (HARA; first compound 0.8 µM): 0.234
relative viability (HARA; first compound 2.53 µM): 0.241
relative viability (HARA; first compound 8 µM): 0.377
relative viability (NCI-H2228; first compound 0.08 µM): 0.547
relative viability (NCI-H2228; first compound 0.253 µM): 0.6
relative viability (NCI-H2228; first compound 0.8 µM): 0.625
relative viability (NCI-H2228; first compound 2.53 µM): 0.402
relative viability (NCI-H2228; first compound 8 µM): 0.51
relative viability (LC-2-ad; first compound 0.08 µM): 0.648
relative viability (LC-2-ad; first compound 0.253 µM): 0.584
relative viability (LC-2-ad; first compound 0.8 µM): 0.532
relative viability (LC-2-ad; first compound 2.53 µM): 0.405
relative viability (LC-2-ad; first compound 8 µM): 0.461
relative viability (ABC-1; first compound 0.08 µM): 0.604
relative viability (ABC-1; first compound 0.253 µM): 0.651
relative viability (ABC-1; first compound 0.8 µM): 0.531
relative viability (ABC-1; first compound 2.53 µM): 0.492
relative viability (ABC-1; first compound 8 µM): 0.653
relative viability (NCI-H23; first compound 0.08 µM): 0.721
relative viability (NCI-H23; first compound 0.253 µM): 0.716
relative viability (NCI-H23; first compound 0.8 µM): 0.783
relative viability (NCI-H23; first compound 2.53 µM): 0.702
relative viability (NCI-H23; first compound 8 µM): 0.86
relative viability (COR-L23; first compound 0.08 µM): 0.564
relative viability (COR-L23; first compound 0.253 µM): 0.589
relative viability (COR-L23; first compound 0.8 µM): 0.571
relative viability (COR-L23; first compound 2.53 µM): 0.58
relative viability (COR-L23; first compound 8 µM): 0.504
relative viability (ChaGo-K-1; first compound 0.08 µM): 0.499
relative viability (ChaGo-K-1; first compound 0.253 µM): 0.568
relative viability (ChaGo-K-1; first compound 0.8 µM): 0.585
relative viability (ChaGo-K-1; first compound 2.53 µM): 0.454
relative viability (ChaGo-K-1; first compound 8 µM): 0.674
relative viability (NCI-H358; first compound 0.08 µM): 0.145
relative viability (NCI-H358; first compound 0.253 µM): 0.163
relative viability (NCI-H358; first compound 0.8 µM): 0.148
relative viability (NCI-H358; first compound 2.53 µM): 0.152
relative viability (NCI-H358; first compound 8 µM): 0.189
relative viability (NCI-H1793; first compound 0.08 µM): 0.379
relative viability (NCI-H1793; first compound 0.253 µM): 0.441
relative viability (NCI-H1793; first compound 0.8 µM): 0.335
relative viability (NCI-H1793; first compound 2.53 µM): 0.379
relative viability (NCI-H1793; first compound 8 µM): 0.386
relative viability (HCC-366; first compound 0.08 µM): 0.633
relative viability (HCC-366; first compound 0.253 µM): 0.718
relative viability (HCC-366; first compound 0.8 µM): 0.547
relative viability (HCC-366; first compound 2.53 µM): 0.666
relative viability (HCC-366; first compound 8 µM): 0.767
relative viability (NCI-H1395; first compound 0.08 µM): 0.425
relative viability (NCI-H1395; first compound 0.253 µM): 0.366
relative viability (NCI-H1395; first compound 0.8 µM): 0.436
relative viability (NCI-H1395; first compound 2.53 µM): 0.338
relative viability (NCI-H1395; first compound 8 µM): 0.386
relative viability (HCC-78; first compound 0.08 µM): 0.395
relative viability (HCC-78; first compound 0.253 µM): 0.553
relative viability (HCC-78; first compound 0.8 µM): 0.284
relative viability (HCC-78; first compound 2.53 µM): 0.329
relative viability (HCC-78; first compound 8 µM): 0.389
relative viability (EMC-BAC-2; first compound 0.08 µM): 0.252
relative viability (EMC-BAC-2; first compound 0.253 µM): 0.368
relative viability (EMC-BAC-2; first compound 0.8 µM): 0.306
relative viability (EMC-BAC-2; first compound 2.53 µM): 0.303
relative viability (EMC-BAC-2; first compound 8 µM): 0.399
relative viability (NCI-H1993; first compound 0.08 µM): 0.519
relative viability (NCI-H1993; first compound 0.253 µM): 0.581
relative viability (NCI-H1993; first compound 0.8 µM): 0.544
relative viability (NCI-H1993; first compound 2.53 µM): 0.525
relative viability (NCI-H1993; first compound 8 µM): 0.56
relative viability (NCI-H838; first compound 0.08 µM): 0.273
relative viability (NCI-H838; first compound 0.253 µM): 0.283
relative viability (NCI-H838; first compound 0.8 µM): 0.276
relative viability (NCI-H838; first compound 2.53 µM): 0.278
relative viability (NCI-H838; first compound 8 µM): 0.273
relative viability (HOP-62; first compound 0.08 µM): 0.615
relative viability (HOP-62; first compound 0.253 µM): 0.835
relative viability (HOP-62; first compound 0.8 µM): 0.679
relative viability (HOP-62; first compound 2.53 µM): 0.562
relative viability (HOP-62; first compound 8 µM): 0.543
relative viability (NCI-H2023; first compound 0.08 µM): 0.537
relative viability (NCI-H2023; first compound 0.253 µM): 0.679
relative viability (NCI-H2023; first compound 0.8 µM): 0.498
relative viability (NCI-H2023; first compound 2.53 µM): 0.48
relative viability (NCI-H2023; first compound 8 µM): 0.405
